From patent US3971779A, “7-[2-(5-Amino-1,3,4-thiadiazol-2-ylthio)acetamido]cephalosporins” (American Home Products Corporation, priority 1975, dated 1976)
Values after ≈ are worked out from the molar mass of the structure shown. Read-outs that look alike come from different tables or passages of the source.

Legend:
Assay in all cases: agar serial dilution MIC
Assay type in all cases: cell-based
[1] = test system: Bacillus subtilis (BA SU) 6633
Protocol: (§1) A stock solution of 7-[2-(4,5-dihydro-5-imino-1,3,4-thiadiazol-2-ylthio)acetamido]cephalosporanic acid as the hydrobromic acid addition salt containing 2,500 μg. of the active moiety is prepared in phosphate buffer. Two fold serial dilutions are prepared with phosphate buffer. One milliliter (ml.) quantities of each dilution are incorporated in 9 ml. seen agar in sterile Petri plates. The hardened surface is innoculated with test organisms using a Steers replicating device. The plates are incubated at 35° C. for 18 hours.
(§2) The test organisms are Bacillus subtilis (BA SU) 6633; Staphylococcus aureus (ST AU) 6538P, Smith CHP, and 3-180; Mycobacterium smegmatis (MY SM) 10143; Neisseria catarrhalis (NE CA) 8193; Pseudonomas aeruginosa (PS AE) 10145; Escherichia coli (ES CO) 9637, and 920; Escherichia intermedia (ES IN) 65-1; Salmonella paratyphi (SA PA) 11737; Enterobacter aerogenes (EN AE) 13048; Klebsiella pneumoniae (KL PN) 10031; Bordetella bronchiseptica (BO BR) 4617; Proteus vulgaris (PR VU) 6896; and Herellea species (HE SP) 9955. These organisms are grown for 18 hours in Brain heart infusion at 35° C. Prior to use the cultures are diluted 10 fold with the infusion, except in the case of Mycobacterium. The latter is grown in Emerson's broth for 5 days at 28° C. in shaker flasks and used undiluted.
(§3) A second preparation of 7-[2-(4,5-dihydro-5-imino-1,3,4-thiadiazol-2-ylthio)acetamido]cephalosporanic acid prepared as described in Example 1 is tested as described in Example 2. The minimum inhibitory concentrations obtained are as follows: […]

[2] = test system: Bordetella bronchiseptica (BO BR) 4617; details: 18 h
Protocol: as §1, §2, §3

[3] = test system: Enterobacter aerogenes (EN AE) 13048; details: Klebsiella aerogenes
Protocol: as §1, §2, §3

[4] = test system: Escherichia coli (ES CO) 920
Protocol: as §1, §2, §3

[5] = test system: Escherichia coli (ES CO) 9637
Protocol: as §1, §2, §3

[6] = test system: Escherichia intermedia (ES IN) 65-1; details: Citrobacter intermedius
Protocol: as §1, §2, §3

[7] = test system: Herellea species (HE SP) 9955
Protocol: as §1, §2, §3

[8] = test system: Neisseria catarrhalis (NE CA) 8193
Protocol: as §1, §2, §3

[9] = test system: Proteus vulgaris (PR VU) 6896
Protocol: as §1, §2, §3

[10] = test system: Pseudonomas aeruginosa (PS AE) 10145
Protocol: as §1, §2, §3

[11] = test system: Salmonella paratyphi (SA PA) 11737; details: Salmonella enterica, 18 h
Protocol: as §1, §2, §3

[12] = test system: Staphylococcus aureus (ST AU) 3-180; details: 18 h
Protocol: as §1, §2, §3

[13] = test system: Staphylococcus aureus (ST AU) 6538P
Protocol: as §1, §2, §3

[14] = test system: Staphylococcus aureus (ST AU) CHP
Protocol: as §1, §2, §3

[15] = test system: Staphylococcus aureus (ST AU) Smith
Protocol: as §1, §2, §3

[16] = 18 h, second preparation (Example 3), read-out: minimum inhibitory concentration (MIC)
[17] = first preparation (Example 2), HBr salt, 35° C., 18 hours, read-out: minimum concentration (MIC) required to completely inhibit growth
[18] = read-out: minimum concentration (MIC) required to completely inhibit growth
[19] = second preparation (Example 3), read-out: minimum inhibitory concentration (MIC)

SMILES: CC(=O)OCC1=C(C(=O)O)N2C(=O)C(NC(=O)CSc3n[nH]c(=N)s3)C2SC1 (stereo not drawn) [7-[2-(4,5-Dihydro-5-Imino-1,3,4-Thiadiazol-2-ylthio)Acetamido]Cephalosporanic Acid]
- MIC [1, 16]: 0.122 µg/mL (≈ 0.274 µM)
- MIC [1, 17]: 0.122 µg/mL
- MIC [2, 18]: 7.81 µg/mL (≈ 17.5 µM)
- MIC [2, 19]: 3.9 µg/mL (≈ 8.75 µM)
- MIC [3, 16]: > 250 µg/mL
- MIC [3, 17]: > 250 µg/mL
- MIC [4, 16]: 3.9 µg/mL (≈ 8.75 µM)
- MIC [4, 17]: 15.6 µg/mL
- MIC [5, 16]: 31.3 µg/mL (≈ 70.3 µM)
- MIC [5, 17]: 7.81 µg/mL
- MIC [6, 16]: > 250 µg/mL
- MIC [6, 17]: > 250 µg/mL
- MIC [7, 16]: > 250 µg/mL
- MIC [7, 17]: > 250 µg/mL
- MIC [8, 16]: 62.5 µg/mL (≈ 140 µM)
- MIC [8, 17]: 31.3 µg/mL
- MIC [9, 16]: 3.9 µg/mL (≈ 8.75 µM)
- MIC [9, 17]: 15.6 µg/mL
- MIC [10, 16]: > 250 µg/mL
- MIC [10, 17]: > 250 µg/mL
- MIC [11, 18]: 3.9 µg/mL (≈ 8.75 µM)
- MIC ([11]; read-out: minimum inhibitory concentration (MIC)): 3.9 µg/mL (≈ 8.75 µM)
- MIC [12, 18]: 1.95 µg/mL (≈ 4.38 µM)
- MIC [12, 19]: 3.9 µg/mL (≈ 8.75 µM)
- MIC [13, 16]: 0.976 µg/mL (≈ 2.19 µM)
- MIC [13, 17]: 0.488 µg/mL
- MIC ([14]; 18 h, read-out: minimum inhibitory concentration (MIC)): 1.95 µg/mL (≈ 4.38 µM)
- MIC [14, 17]: 0.976 µg/mL
- MIC [15, 16]: 0.488 µg/mL (≈ 1.1 µM)
- MIC [15, 17]: 0.244 µg/mL
